Assay results as given in patent US9695155B2, “Herbicidal substituted pyrimidinyloxy benzene compounds” (E. I. DU PONT DE NEMOURS AND COMPANY, priority 2013, dated 2017).

Tests used:
[1] = system: barnyardgrass; test: Test A preemergence; type: in vivo, Echinochloa crus-galli; settings: for Barnyardgrass plant response rating: 500 g ai/ha
In short: (§1)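 Visual 0–100 rating (100 = complete control) taken about 10 d post-treatment relative to untreated checks. Preemergence: directed soil spray on sown loam/sand pots. Postemergence: seedlings 2–10 cm, 1–2 leaf. Non-phytotoxic solvent formulation with surfactant.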

[2] = system: pigweed; test: Test A postemergence; type: in vivo, Amaranthus retroflexus
In short: as §1

[3] = system: rice; test: Test B flooded paddy test; type: in vivo, Oryza sativa; settings: Flood, 250 g ai/ha; 0 to 100 scale where 0 is no effect and 100 is complete control
In short: (§2)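 Plants were grown to the 2-leaf stage, then pots were flooded to 3 cm above the soil and compounds were applied directly into the paddy water. That depth was held throughout, and after 13 to 15 days in the greenhouse injury was rated visually against controls on a 0–100 scale (0 no effect, 100 complete control).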

[4] = system: sedge, umbrella; test: Test B flooded paddy test; type: in vivo, Cyperus difformis; settings: Flood, 250 g ai/ha; 0 to 100 scale where 0 is no effect and 100 is complete control
In short: as §2

[5] = system: blackgrass; test: Test C postemergence; type: in vivo, Alopecurus myosuroides; settings: for Blackgrass plant response rating / Plant response rating (0 to 100), Blackgrass: postemergence; for Blackgrass plant response rating: visual rating; for Blackgrass plant response rating / Plant response rating, Blackgrass: scale 0 to 100 (0 no effect, 100 complete control); for Plant response rating, Blackgrass: Postemergence
Source text: (§3) Seeds of plant species selected from blackgrass (Alopecurus myosuroides), Italian ryegrass (Lolium multiflorum), wheat, winter (winter wheat, Triticum aestivum), galium (catchweed bedstraw, Galium aparine), corn (Zea mays), large (Lg) crabgrass (Digitaria sanguinalis), giant foxtail (Setaria faberii), johnsongrass (Sorghum halepense), lambsquarters (Chenopodium album), morningglory (Ipomoea coccinea), yellow nutsedge (Cyperus esculentus), pigweed (Amaranthus retroflexus), ragweed (common ragweed, Ambrosia elatior), soybean (Glycine max), barnyardgrass (Echinochloa crus-galli), oilseed rape (Brassica napus), waterhemp (common waterhemp, Amaranthus rudis), kochia (Kochia scoparia), wild oat (Avena fatua), surinam grass (Brachiaria decumbens), foxtail, green (green foxtail, Setaria viridis), goosegrass (Eleusine indica), bromegrass, downy (downy bromegrass, Bromus tectorum), nightshade (eastern black nightshade, Solanum ptycanthum), cocklebur (common cocklebur, Xanthium strumarium), cupgrass, woolly (woolly cupgrass, Eriochloa villosa), bermudagrass (Cynodon dactylon), sunflower, (common oilseed sunflower, Helianthus annuus), Russian thistle (Salsola kali), and velvetleaf (Abutilon theophrasti) were planted into a blend of loam soil and sand and treated preemergence with test chemicals formulated in a non-phytotoxic solvent mixture which included a surfactant.
(§4) At the same time, plants selected from these crop and weed species and also barley, winter (winter barley, Hordeum vulgare), windgrass (Apera spica-venti), chickweed (common chickweed, Stellaria media), deadnettle (henbit deadnettle, Lamium amplexicaule), and canarygrass (littleseed canarygrass, Phalaris minor) were planted in pots containing Redi-Earth® planting medium (Scotts Company, 14111 Scottslawn Road, Marysville, Ohio 43041) comprising spaghnum peat moss, vermiculite, wetting agent and starter nutrients and treated with postemergence applications of test chemicals formulated in the same manner. Plants ranged in height from 2 to 18 cm (1- to 4-leaf stage) for postemergence treatments. Treated plants and controls were maintained in a greenhouse for 13 to 15 days, after which time all species were compared to controls and visually evaluated. Plant response ratings, summarized in Table C, are based on a scale of 0 to 100 where 0 is no effect and 100 is complete control. A dash (-) response means no test result.

[6] = system: Italian ryegrass; test: Test C postemergence; type: in vivo, Lolium multiflorum; settings: for Plant response rating, Ryegrass, Italian: Postemergence
Source text: as §3, §4

[7] = system: galium; test: Test C postemergence; type: in vivo, Galium aparine; settings: for Galium plant response rating / Plant response rating (0 to 100), Galium: postemergence; for Galium plant response rating: visual rating; for Galium plant response rating / Plant response rating, Galium: scale 0 to 100 (0 no effect, 100 complete control); for Plant response rating, Galium: Postemergence
Source text: as §3, §4

[8] = system: large (Lg) crabgrass; test: Test C postemergence; type: in vivo, Digitaria sanguinalis; settings: for Crabgrass, Large plant response rating / Plant response rating (0 to 100), Crabgrass, Large: postemergence; for Crabgrass, Large plant response rating: visual rating; for Crabgrass, Large plant response rating / Plant response rating, Crabgrass, Large: scale 0 to 100 (0 no effect, 100 complete control); for Plant response rating, Crabgrass, Large: Postemergence
Source text: as §3, §4

[9] = system: lambsquarters; test: Test C postemergence; type: in vivo, Chenopodium album; settings: for Plant response rating, Lambsquarters: Postemergence
Source text: as §3, §4

[10] = system: yellow nutsedge; test: Test C postemergence; type: in vivo, Cyperus esculentus; settings: for Plant response rating, Nutsedge, Yellow: Postemergence
Source text: as §3, §4

[11] = system: ragweed; test: Test C postemergence; type: in vivo, Ambrosia elatior; settings: for Plant response rating, Ragweed: Postemergence
Source text: as §3, §4

[12] = system: soybean; test: Test C postemergence; type: in vivo, Glycine max; settings: for Plant response rating, Soybean: Postemergence
Source text: as §3, §4

[13] = system: barnyardgrass; test: Test C postemergence; type: in vivo, Echinochloa crus-galli; settings: for Barnyardgrass plant response rating / Plant response rating (0 to 100), Barnyardgrass: postemergence; for Barnyardgrass plant response rating: visual rating; for Barnyardgrass plant response rating / Plant response rating, Barnyardgrass: scale 0 to 100 (0 no effect, 100 complete control); for Plant response rating, Barnyardgrass: Postemergence
Source text: as §3, §4

[14] = system: wheat; test: Test A preemergence; type: in vivo, Triticum aestivum; settings: for Wheat plant response rating (0 to 100 scale): 125 g ai/ha; for Wheat plant response rating: 500 g ai/ha, 0 to 100 scale where 0 is no effect and 100 is complete control
In short: as §1

[15] = system: large (Lg) crabgrass; test: Test A postemergence; type: in vivo, Digitaria sanguinalis
In short: as §1

[16] = 125 g ai/ha, 0 to 100 scale where 0 is no effect and 100 is complete control
[17] = 500 g ai/ha, 0 to 100 scale where 0 is no effect and 100 is complete control
[18] = 31 g ai/ha, scale 0 to 100 (0 no effect, 100 complete control), 13 to 15 days
[19] = 62 g ai/ha, scale 0 to 100 (0 no effect, 100 complete control)
[20] = 4 g ai/ha, 0 is no effect, 100 is complete control
[21] = 8 g ai/ha, 0 is no effect, 100 is complete control
[22] = 16 g ai/ha, 0 is no effect, 100 is complete control
[23] = 8 g ai/ha, postemergence, 0 is no effect, 100 is complete control
[24] = 16 g ai/ha, postemergence, 0 is no effect, 100 is complete control
[25] = 31 g ai/ha, postemergence, visual rating, scale 0 to 100 (0 no effect, 100 complete control), 13 to 15 days
[26] = 0 to 100 scale where 0 is no effect and 100 is complete control
[27] = 125 g ai/ha, 0 to 100 scale, 0 no effect, 100 complete control

Cc1cnc(Oc2cccc(C#N)c2-n2cc(C#N)cn2)nc1 [Compound 90]
Plant response rating, Barnyardgrass [1, 16]: 70 | Barnyardgrass plant response rating ([1]; 0 to 100 scale, 0 no effect, 100 complete control, approx. 10 days): 100 | Plant response rating, Pigweed [2, 16]: 100 | Plant response rating, Pigweed [2, 17]: 100 | Plant response rating, Rice [3]: 0 | Plant response rating, Sedge, Umbrella [4]: 40 | Blackgrass plant response rating ([5]; 16 g ai/ha, 13 to 15 days): 0 | Plant response rating (0 to 100), Blackgrass ([5]; 125 g ai/ha): 15 | Plant response rating, Blackgrass ([5]; 31 g ai/ha, 13 to 15 days): 0 | Plant response rating, Blackgrass ([5]; 62 g ai/ha): 5 | Plant response rating (0 to 100), Ryegrass, Italian ([6]; 125 g ai/ha, postemergence): 0 | Plant response rating, Ryegrass, Italian [6, 18]: 5 | Plant response rating, Ryegrass, Italian [6, 19]: 5 | Galium plant response rating ([7]; 16 g ai/ha, 13 to 15 days): 70 | Plant response rating (0 to 100), Galium ([7]; 125 g ai/ha): 85 | Plant response rating, Galium ([7]; 31 g ai/ha, 13 to 15 days): 55 | Plant response rating, Galium ([7]; 62 g ai/ha): 65 | Crabgrass, Large plant response rating ([8]; 16 g ai/ha, 13 to 15 days): 5 | Plant response rating (0 to 100), Crabgrass, Large ([8]; 125 g ai/ha): 10 | Plant response rating, Crabgrass, Large ([8]; 31 g ai/ha, 13 to 15 days): 5 | Plant response rating, Crabgrass, Large ([8]; 62 g ai/ha): 10 | Plant response rating (0 to 100), Lambsquarters ([9]; 125 g ai/ha, postemergence): 60 | Plant response rating, Lambsquarters [9, 18]: 75 | Plant response rating, Lambsquarters [9, 19]: 60 | Plant response rating (0 to 100), Nutsedge, Yellow ([10]; 125 g ai/ha, postemergence): 10 | Plant response rating, Nutsedge, Yellow [10, 18]: 5 | Plant response rating, Nutsedge, Yellow [10, 19]: 10 | Plant response rating (0 to 100), Ragweed ([11]; 125 g ai/ha, postemergence): 65 | Plant response rating, Ragweed [11, 18]: 40 | Plant response rating, Ragweed [11, 19]: 50 | Plant response rating (0 to 100), Soybean ([12]; 125 g ai/ha, postemergence): 60 | Plant response rating, Soybean [12, 18]: 65 | Plant response rating, Soybean [12, 19]: 75 | Barnyardgrass plant response rating ([13]; 16 g ai/ha, 13 to 15 days): 5 | Plant response rating (0 to 100), Barnyardgrass ([13]; 125 g ai/ha): 10 | Plant response rating, Barnyardgrass ([13]; 31 g ai/ha, 13 to 15 days): 5 | Plant response rating, Barnyardgrass ([13]; 62 g ai/ha): 5

FCc1cccc(Oc2ncc(F)cn2)c1-n1cc(I)cn1 [Compound 152]
Plant response rating, Barnyardgrass ([1]; 31 g ai/ha, 0 to 100 scale where 0 is no effect and 100 is complete control, visual, approximately 10 days): 20 | Plant response rating, Barnyardgrass [1, 16]: 70 | Plant response rating, Pigweed ([2]; 31 g ai/ha, 0 to 100 scale, 0 no effect, 100 complete control): 0 | Pigweed plant response rating [2, 16]: 90 | Plant response rating, Rice [3]: 0 | Plant response rating, Sedge, Umbrella [4]: 50 | Plant response rating (0 to 100), Blackgrass [5, 20]: 0 | Plant response rating (0 to 100), Blackgrass [5, 21]: 0 | Plant response rating (0 to 100), Blackgrass [5, 22]: 0 | Blackgrass plant response rating ([5]; 31 g ai/ha, 13 to 15 days): 0 | Plant response rating (0 to 100), Ryegrass, Italian [6, 23]: 0 | Plant response rating (0 to 100), Ryegrass, Italian [6, 24]: 0 | Ryegrass, Italian plant response rating [6, 25]: 0 | Plant response rating (0 to 100), Galium [7, 21]: 15 | Plant response rating (0 to 100), Galium [7, 22]: 35 | Galium plant response rating ([7]; 31 g ai/ha, 13 to 15 days): 55 | Plant response rating (0 to 100), Crabgrass, Large [8, 21]: 5 | Plant response rating (0 to 100), Crabgrass, Large [8, 22]: 5 | Crabgrass, Large plant response rating ([8]; 31 g ai/ha, 13 to 15 days): 5 | Plant response rating (0 to 100), Lambsquarters [9, 23]: 60 | Plant response rating (0 to 100), Lambsquarters [9, 24]: 40 | Lambsquarters plant response rating [9, 25]: 80 | Plant response rating (0 to 100), Nutsedge, Yellow [10, 23]: 0 | Plant response rating (0 to 100), Nutsedge, Yellow [10, 24]: 0 | Nutsedge, Yellow plant response rating [10, 25]: 0 | Plant response rating (0 to 100), Ragweed [11, 23]: 15 | Plant response rating (0 to 100), Ragweed [11, 24]: 10 | Ragweed plant response rating [11, 25]: 40 | Plant response rating (0 to 100), Soybean [12, 23]: 30 | Plant response rating (0 to 100), Soybean [12, 24]: 35 | Soybean plant response rating [12, 25]: 60 | Plant response rating (0 to 100), Barnyardgrass [13, 20]: 0 | Plant response rating (0 to 100), Barnyardgrass [13, 21]: 0 | Plant response rating (0 to 100), Barnyardgrass [13, 22]: 5 | Barnyardgrass plant response rating ([13]; 31 g ai/ha, 13 to 15 days): 5

N#Cc1cnn(-c2c(C#N)cccc2Oc2ncc(Br)cn2)c1 [Compound 135]
Plant response rating, Barnyardgrass [1, 16]: 40 | Barnyardgrass plant response rating [1, 26]: 90 | Pigweed plant response rating [2, 16]: 70 | Plant response rating, Pigweed [2, 17]: 100 | Plant response rating, Rice [3]: 0 | Plant response rating, Sedge, Umbrella [4]: 75

NC(=S)c1cccc(Oc2ncc(Cl)cn2)c1-n1cc(Cl)cn1 [Compound 292]
Barnyardgrass plant response rating (0 to 100 scale, 0 is no effect, 100 is complete control) ([1]; 125 g ai/ha): 80 | Barnyardgrass plant response rating [1, 26]: 100 | Wheat plant response rating (0 to 100 scale) [14]: 10 | Wheat plant response rating [14]: 30 | Plant response rating, Crabgrass, Large [15, 27]: 60 | Plant response rating, Crabgrass, Large [15, 17]: 90 | Plant response rating, Pigweed [2, 27]: 100 | Plant response rating, Pigweed [2, 17]: 100 | Plant response rating, Rice [3]: 20 | Plant response rating, Sedge, Umbrella [4]: 75

FC(F)c1cccc(Oc2ncc(Cl)cn2)c1-n1cc(C(F)(F)F)cn1 [Compound 170]
Plant response rating, Barnyardgrass [1, 16]: 90 | Barnyardgrass plant response rating [1, 26]: 100 | Wheat plant response rating (0 to 100 scale) [14]: 20 | Wheat plant response rating [14]: 20 | Crabgrass, Large plant response rating [15, 16]: 70 | Plant response rating, Crabgrass, Large [15, 17]: 90 | Pigweed plant response rating [2, 16]: 100 | Plant response rating, Pigweed [2, 17]: 100 | Plant response rating, Rice [3]: 50 | Plant response rating, Sedge, Umbrella [4]: 90
